This note sets out measurements from article PMC12647759 (Scientific Reports, 2025).

Each structure is given as a SMILES string. pIC50: −log10 of the molar value.

One may read the pIC50 as the IC50 on a negative log10 scale, so that one unit is a factor of ten.

Format in all cases: biochemical
One assay addresses T1, human PLCε (Homo sapiens, UniProt Q9P212).
T1 construct: expressing the full-length polypeptides of human PLCε, PLCβ4, PLCδ1 and PLCγ1 as FLAG fusions; made in house; host or cells: Expi293F cells
Put plainly: In vitro PLC assay using fluorogenic substrate Compound 1 (HTS), PLCε. The settings on record: for pIC50: purified full-length PLCε, fluorogenic substrate Compound 1, read-out: IC50, inhibition of PLCε (hydrolysis of Compound 1). The method, then: For measuring inhibition by compounds for HTS, the reactions were conducted at RIKEN Center for Sustainable Resource Science (CSRS) as described above except that 5 µl of compound solution and 5 µl of purified PLCe (120 ng) were added to each well. […] For determination of the IC50 values for ZPT and Zn^2+, the EDTA concentration was reduced to one-tenth to avoid its zinc-chelating effect. For assay of the other PLC classes, the reactions were performed similarly except that PLCβ4 (5 ng), PLCδ1 (0.1 ng) or PLCγ1 (0.3 ng) was used instead of PLCε.

Another assay has as its target T2, human PLCβ4 (Homo sapiens, UniProt Q15147).
T2 construct: expressing the full-length polypeptides of human PLCε, PLCβ4, PLCδ1 and PLCγ1 as FLAG fusions; made in house; host or cells: Expi293F cells
T2 sequence (Q15147 1-1175): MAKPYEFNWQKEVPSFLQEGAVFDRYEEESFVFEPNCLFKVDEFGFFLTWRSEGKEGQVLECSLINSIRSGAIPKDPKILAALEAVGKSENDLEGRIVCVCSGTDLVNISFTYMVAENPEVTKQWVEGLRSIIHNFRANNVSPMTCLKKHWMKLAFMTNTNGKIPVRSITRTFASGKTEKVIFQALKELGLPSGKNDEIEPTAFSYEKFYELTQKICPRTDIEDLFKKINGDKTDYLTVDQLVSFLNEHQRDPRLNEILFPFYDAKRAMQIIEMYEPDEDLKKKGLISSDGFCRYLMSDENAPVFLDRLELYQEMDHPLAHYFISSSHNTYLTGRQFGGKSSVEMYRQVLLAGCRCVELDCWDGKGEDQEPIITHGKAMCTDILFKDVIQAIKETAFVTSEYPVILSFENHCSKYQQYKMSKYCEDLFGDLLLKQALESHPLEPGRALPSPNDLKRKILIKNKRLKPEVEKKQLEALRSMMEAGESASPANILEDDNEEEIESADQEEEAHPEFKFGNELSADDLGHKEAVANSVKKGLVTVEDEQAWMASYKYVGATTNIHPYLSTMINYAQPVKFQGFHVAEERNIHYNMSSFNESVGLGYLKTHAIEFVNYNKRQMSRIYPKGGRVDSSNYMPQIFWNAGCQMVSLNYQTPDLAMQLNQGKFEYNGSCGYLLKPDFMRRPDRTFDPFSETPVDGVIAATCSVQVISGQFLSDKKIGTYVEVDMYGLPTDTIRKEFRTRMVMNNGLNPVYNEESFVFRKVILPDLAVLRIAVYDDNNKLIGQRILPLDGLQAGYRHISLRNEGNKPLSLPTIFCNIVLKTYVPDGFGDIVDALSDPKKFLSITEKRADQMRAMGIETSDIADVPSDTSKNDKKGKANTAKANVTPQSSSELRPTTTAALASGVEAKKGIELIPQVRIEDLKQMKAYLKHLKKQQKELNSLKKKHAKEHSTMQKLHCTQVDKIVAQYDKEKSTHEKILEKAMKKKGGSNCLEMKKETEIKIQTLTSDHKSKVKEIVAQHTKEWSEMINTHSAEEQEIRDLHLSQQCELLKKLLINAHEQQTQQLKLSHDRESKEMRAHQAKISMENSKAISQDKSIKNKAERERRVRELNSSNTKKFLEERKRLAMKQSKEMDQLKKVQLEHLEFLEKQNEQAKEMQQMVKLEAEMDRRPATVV
As to the kind of experiment: In vitro PLC assay using fluorogenic substrate Compound 1, PLCβ4. Conditions: for pIC50: purified PLCβ4, fluorogenic substrate Compound 1, read-out: IC50, inhibition of PLCβ4 (hydrolysis of Compound 1). The procedure: (§1) Ten µl of 2 × substrate solutions (50 mM HEPES pH7.2, 200 mM NaCl, 0.2 mM CaCl2, 0.4 mM DTT, 0.4 µM EDTA, 0.02% gelatin, 0.2% sodium cholate and 60 µM Compound 1) were added to each well of a 384-well plate (CONING #3573) containing 10 µl of purified PLCε (120 ng) and incubated with shaking at 30 °C for 3 h. After terminating the reaction by the addition of 2 µl of 5 mM EDTA, the fluorescence emission was measured at 520 nm with the excitation at 485 nm by a microplate reader (POLARstar Omega-25). For measuring inhibition by compounds for HTS, the reactions were conducted at RIKEN Center for Sustainable Resource Science (CSRS) as described above except that 5 µl of compound solution and 5 µl of purified PLCe (120 ng) were added to each well. Solution dispensing and fluorescence detection were conducted by using an automated dispenser (EDR-384, Biotec) and a hybrid multi-mode microplate reader (Synergy H4, Biotec), respectively. For determination of the IC50 values for ZPT and Zn^2+, the EDTA concentration was reduced to one-tenth to avoid its zinc-chelating effect. For assay of the other PLC classes, the reactions were performed similarly except that PLCβ4 (5 ng), PLCδ1 (0.1 ng) or PLCγ1 (0.3 ng) was used instead of PLCε.

A further assay addresses T3, human PLCδ1 (Homo sapiens, UniProt P51178).
T3 construct: expressing the full-length polypeptides of human PLCε, PLCβ4, PLCδ1 and PLCγ1 as FLAG fusions; made in house; host or cells: Expi293F cells
T3 sequence (P51178 1-756): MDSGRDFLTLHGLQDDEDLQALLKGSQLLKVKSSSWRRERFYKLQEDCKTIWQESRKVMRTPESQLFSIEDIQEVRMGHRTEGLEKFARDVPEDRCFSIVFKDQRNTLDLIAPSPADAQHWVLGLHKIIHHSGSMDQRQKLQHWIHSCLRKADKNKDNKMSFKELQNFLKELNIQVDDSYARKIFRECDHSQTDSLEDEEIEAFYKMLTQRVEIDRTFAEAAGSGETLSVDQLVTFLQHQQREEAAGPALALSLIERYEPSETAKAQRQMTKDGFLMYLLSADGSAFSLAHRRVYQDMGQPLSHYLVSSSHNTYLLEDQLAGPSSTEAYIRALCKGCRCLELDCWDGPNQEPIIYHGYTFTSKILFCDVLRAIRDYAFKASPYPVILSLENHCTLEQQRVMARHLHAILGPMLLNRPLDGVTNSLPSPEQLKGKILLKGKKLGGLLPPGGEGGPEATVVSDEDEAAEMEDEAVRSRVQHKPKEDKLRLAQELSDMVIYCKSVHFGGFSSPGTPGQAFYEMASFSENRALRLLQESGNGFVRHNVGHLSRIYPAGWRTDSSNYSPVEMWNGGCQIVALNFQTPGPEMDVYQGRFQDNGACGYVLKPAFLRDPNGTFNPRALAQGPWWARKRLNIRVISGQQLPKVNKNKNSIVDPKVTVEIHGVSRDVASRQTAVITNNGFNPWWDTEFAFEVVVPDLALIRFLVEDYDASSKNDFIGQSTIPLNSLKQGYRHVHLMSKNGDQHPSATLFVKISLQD
Put plainly: In vitro PLC assay using fluorogenic substrate Compound 1, PLCδ1. Conditions: for pIC50: purified PLCδ1, fluorogenic substrate Compound 1, read-out: IC50, inhibition of PLCδ1 (hydrolysis of Compound 1). The procedure:
as §1

The mark [1] stands for this setting: Compound 1 as substrate, varying concentrations.

T1 sequence (Q9P212 whole entry, the tested form may be a part): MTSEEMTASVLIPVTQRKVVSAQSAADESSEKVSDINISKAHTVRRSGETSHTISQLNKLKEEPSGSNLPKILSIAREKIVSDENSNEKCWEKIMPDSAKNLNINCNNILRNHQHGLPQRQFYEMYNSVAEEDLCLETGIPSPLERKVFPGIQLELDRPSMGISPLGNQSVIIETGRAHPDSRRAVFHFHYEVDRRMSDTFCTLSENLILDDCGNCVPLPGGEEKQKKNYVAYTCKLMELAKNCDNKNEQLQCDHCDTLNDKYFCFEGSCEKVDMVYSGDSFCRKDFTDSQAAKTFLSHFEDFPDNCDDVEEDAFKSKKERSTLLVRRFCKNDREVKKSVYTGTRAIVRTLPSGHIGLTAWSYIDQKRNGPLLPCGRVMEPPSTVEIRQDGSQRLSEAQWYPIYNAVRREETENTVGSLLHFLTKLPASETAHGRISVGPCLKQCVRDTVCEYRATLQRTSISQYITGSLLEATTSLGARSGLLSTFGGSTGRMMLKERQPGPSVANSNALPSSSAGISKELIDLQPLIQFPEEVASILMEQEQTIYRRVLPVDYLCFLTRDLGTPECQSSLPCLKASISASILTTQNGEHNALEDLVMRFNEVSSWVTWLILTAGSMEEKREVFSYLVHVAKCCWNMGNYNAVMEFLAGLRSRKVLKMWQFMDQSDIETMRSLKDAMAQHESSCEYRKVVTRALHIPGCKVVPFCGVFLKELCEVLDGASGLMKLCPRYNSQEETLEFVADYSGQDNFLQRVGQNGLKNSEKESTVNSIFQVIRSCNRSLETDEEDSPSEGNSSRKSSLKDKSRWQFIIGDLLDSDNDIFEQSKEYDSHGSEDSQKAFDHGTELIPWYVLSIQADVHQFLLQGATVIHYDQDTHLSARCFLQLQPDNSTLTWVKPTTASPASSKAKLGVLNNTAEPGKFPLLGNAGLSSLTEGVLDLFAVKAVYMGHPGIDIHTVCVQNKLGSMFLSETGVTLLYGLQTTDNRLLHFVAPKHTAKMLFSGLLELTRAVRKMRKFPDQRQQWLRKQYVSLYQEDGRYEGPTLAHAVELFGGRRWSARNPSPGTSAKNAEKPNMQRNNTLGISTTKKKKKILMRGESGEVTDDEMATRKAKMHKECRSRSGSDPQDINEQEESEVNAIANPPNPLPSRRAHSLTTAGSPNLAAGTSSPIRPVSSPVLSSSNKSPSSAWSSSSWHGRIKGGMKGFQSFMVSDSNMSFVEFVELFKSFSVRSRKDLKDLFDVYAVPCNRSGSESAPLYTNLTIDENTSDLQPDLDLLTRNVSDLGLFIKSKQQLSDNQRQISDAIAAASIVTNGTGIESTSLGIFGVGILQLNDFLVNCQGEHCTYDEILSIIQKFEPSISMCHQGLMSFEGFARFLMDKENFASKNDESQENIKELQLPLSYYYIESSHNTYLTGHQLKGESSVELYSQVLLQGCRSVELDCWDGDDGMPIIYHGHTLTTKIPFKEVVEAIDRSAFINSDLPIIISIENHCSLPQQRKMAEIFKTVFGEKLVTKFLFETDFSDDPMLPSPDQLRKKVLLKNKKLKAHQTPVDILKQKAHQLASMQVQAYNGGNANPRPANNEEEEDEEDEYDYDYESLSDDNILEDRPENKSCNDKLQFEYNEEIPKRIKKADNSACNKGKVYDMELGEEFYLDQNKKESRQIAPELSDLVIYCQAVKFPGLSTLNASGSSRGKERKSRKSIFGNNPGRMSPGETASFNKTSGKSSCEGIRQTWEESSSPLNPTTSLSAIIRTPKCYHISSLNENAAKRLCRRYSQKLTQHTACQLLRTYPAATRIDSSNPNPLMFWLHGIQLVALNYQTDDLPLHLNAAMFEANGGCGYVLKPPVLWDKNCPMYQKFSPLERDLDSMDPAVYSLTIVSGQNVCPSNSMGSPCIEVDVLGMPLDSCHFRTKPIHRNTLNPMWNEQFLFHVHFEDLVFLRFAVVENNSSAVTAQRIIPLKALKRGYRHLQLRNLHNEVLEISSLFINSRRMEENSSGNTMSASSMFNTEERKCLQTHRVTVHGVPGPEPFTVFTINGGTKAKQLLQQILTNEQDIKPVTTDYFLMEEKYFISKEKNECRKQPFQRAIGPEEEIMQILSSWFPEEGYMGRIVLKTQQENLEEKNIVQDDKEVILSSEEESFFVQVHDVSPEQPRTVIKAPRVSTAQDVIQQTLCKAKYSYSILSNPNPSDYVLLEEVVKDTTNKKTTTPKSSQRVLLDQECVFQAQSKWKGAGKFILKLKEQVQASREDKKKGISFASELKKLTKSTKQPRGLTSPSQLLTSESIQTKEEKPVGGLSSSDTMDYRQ

Consider `C[n+]1cc2c3c(ccc2c2ccc4cc5c(cc4c21)OCO5)OCO3` [Sanguinarine, sanguinarine], for which the pIC50 at human PLCε was 5.72; at human PLCβ4, 4.10; at human PLCδ1 it was 4.32.

Take `O=S(=O)([O-])[O-].[Zn+2]` [ZnSO4]: the “PLCε inhibitory activity of ZnSO4 on addition of excess sodium pyrithione” value at human PLCε (5 µM ZnSO4, varying concentrations of sodium pyrithione) is “compromised the inhibitory activity of ZnSO4 in a dose-dependent manner”. Also, the negative-log IC50 (pIC50) at human PLCε was 5.92. The “inhibitory activity toward PLCβ” value at human PLCβ4 (setting [1]) is “without exhibiting any noticeable inhibitory activities”. On human PLCδ1 (setting [1]), the “inhibitory activity toward PLCδ” value is “without exhibiting any noticeable inhibitory activities”.

Regarding `COc1ccc2c(c[n+](C)c3c4cc5c(cc4ccc23)OCO5)c1OC` [chelerythrine], the negative logarithm of the IC50 (pIC50) was 5.89 on human PLCε, 4.40 at human PLCβ4 and 5.14 at human PLCδ1.

On to `CCCCCCOc1ccc2c(c1)Oc1cc(OP(=O)(O)O[C@H]3[C@H](O)[C@@H](O)[C@H](OP(=O)(O)O)[C@@H](O)[C@H]3O)ccc1C21OC(=O)c2ccccc21` (stereo partly shown) [compound 1], for which the pIC50 is 5.51 at human PLCε, 5.43 at human PLCβ4 and 6.40 at human PLCδ1.
